# Experiments:
# ovarian cancer cells = assay: Nuclear proteins in exosomes from drug-treated ovarian cancer cells (Western blot); format: cell-based, human; settings: topotecan 10 nM or olaparib 20 μM
# Procedure: Isolation of exosomes. The isolation method for exosomes that was used in this study followed the standard methods of the International Society of Extracellular Vesicles (Witwer et al., 2013). Cell lines described above were grown in the corresponding medium described above until 60 to 70% confluence was achieved. Cells were then washed twice with phosphate-buffered saline (PBS) and grown in corresponding medium containing 1% exosome-free FBS (EXO-FBS-250A-1, System Biosciences) plus 0.1% gentamicin for 48 hours. For exosome isolation, the harvested medium underwent serial centrifugation. First, the medium was spun down at 500g for 10 min to pellet any floating cells. Next, the supernatant was collected and spun down at 2000g for 30 min to pellet any residual cell debris. The resulting supernatant was then filtered through a 0.22-μm filter (SCGPUO5RE and SLGP033RS, Millipore-Sigma) to remove any remaining large vesicles. After filtration, the medium was spun down at 40,000 rpm for 2 hours at 4° C. in an ultracentrifuge (Optima XE, Beckman Coulter) with a Ti 45 fixed-angle rotor (339160, Beckman Coulter). […] Exosome concentration and quantity were determined using NTA with a NanoSight NS300 instrument (Malvern Panalytical).
# Western blotting. […] Protein concentration was determined using the Micro BCA Protein Assay Kit (23235, Thermo Fisher Scientific) according to the manufacturer's protocol. […]
# [1] = system: OVCAR-5 ovarian cancer model; assay: MN quantification in tumor nodules of OVCAR-5 intraperitoneal model after topotecan; format: in vivo, mouse; settings: topotecan 7.5 mg/kg intraperitoneally, single dose, euthanized 48 hours later; vs vehicle control
# Procedure: In vivo experiments. For the in vivo mouse experiments, female athymic (NCr-nude) mice were purchased from Taconic Biosciences. Mice were cared for in accordance with the American Association for Assessment and Accreditation of Laboratory Animal Care and the U.S. Public Health Service policy on Humane Care and Use of Laboratory Animals. All studies and experiments that were performed were supervised and approved by the MD Anderson Institutional Animal Care and Use Committee. Mice were 10 to 15 weeks old at the time of tumor intraperitoneal cell injections. OVCAR-5 luciferase—labeled cells (1×10^6) were injected intraperitoneally into each mouse. […]
# Human tumor samples and MN quantification. […] For MN identification and quantification, the Vectra Polaris platform (PerkinElmer) was used, and inForm software (PerkinElmer) was used to systematically count MN. After tissue segmentation, a number of nuclei in views were calculated by the cell segmentation process, and MN was defined as over 0.85 roundness and less than approximately 3 μm size (95 pixels in 96 dpi images), as shown in FIG. 3D.
# To validate these findings in vivo, the OVCAR-5 ovarian cancer model, which represents disseminated peritoneal disease, was used. […] To calculate the number of MN, multiple IF images of tumor slides were taken, and MN were systematically counted by the Vectra—inForm Image Analysis System (PerkinElmer) (FIG. 3D).
compound,measurement,setting,value
CC[C@@]1(O)C(=O)OCc2c1cc1n(c2=O)Cc2cc3c(CN(C)C)c(O)ccc3nc2-1 [topotecan],population of exosomes containing nuclear proteins,ovarian cancer cells,increased
same,MN-positive cell percentages in tumor,[1],trend toward an increased

# From US20220163532A1, “NUCLEAR-DERIVED EXOSOMES AND METHODS OF USE THEREOF” (Board of Regents, The University of Texas System, priority 2019, published 2022)
